The compounds below were run against FP receptor (Homo sapiens (Human), UniProt P43088) (assay: In vitro test of inhibition of human FP receptor activity (PGF2α-induced calcium flux in FP-expressing CHEM1 cells)). Details: PGF2α 2 nM, some mean values of multiple determinations.
Assay type: cell-based
In short: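 FP antagonism in FP-expressing CHEM1 cells loaded with Fluo-8. Compound preincubated 10 min at 37° C, then receptor stimulated with 2 nM (final) PGF2α in calcium-free Tyrode with 2 mM CaCl2.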

FP receptor, sequence (P43088 whole entry): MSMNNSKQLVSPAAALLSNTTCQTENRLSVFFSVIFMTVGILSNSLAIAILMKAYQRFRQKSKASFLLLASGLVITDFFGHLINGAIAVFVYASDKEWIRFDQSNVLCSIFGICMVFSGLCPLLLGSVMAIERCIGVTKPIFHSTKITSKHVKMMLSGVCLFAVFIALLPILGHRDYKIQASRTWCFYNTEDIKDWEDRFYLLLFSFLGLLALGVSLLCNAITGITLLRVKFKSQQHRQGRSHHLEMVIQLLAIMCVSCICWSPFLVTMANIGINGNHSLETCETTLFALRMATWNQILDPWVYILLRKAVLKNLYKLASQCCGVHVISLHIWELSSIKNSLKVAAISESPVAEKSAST

SMILES | IC50
CCC1CCCN(c2nc3ccc(Br)cc3c(C(=O)NCC(CCC(=O)O)c3ccccc3OC(F)(F)F)c2C)C1 (single isomer, unassigned; (+)) [Example 208, (+)-5-[({6-Bromo-2-[3-ethylpiperidin-1-yl]-3-methylquinolin-4-yl}carbonyl)amino]-4-[2-(trifluoromethoxy)phenyl]pentanoic acid] | 1.4 nM
Cc1c(N2CCCC(C(N)=O)C2)nc2ccc(Br)cc2c1C(=O)NCC(CCC(=O)O)c1ccccc1Cl (stereo not shown) [Example 85, 5-[({6-Bromo-2-[3-carbamoylpiperidin-1-yl]-3-methylquinolin-4-yl}carbonyl)amino]-4-(2-chlorophenyl)pentanoic acid] | 590 nM
Cc1c(N2CC=CCO2)nc2ccc(Br)cc2c1C(=O)NCC(CCC(=O)O)c1ccccc1Cl (racemic) [Example 77, (+/−)-5-({[6-Bromo-2-(3,6-dihydro-2H-1,2-oxazin-2-yl)-3-methylquinolin-4-yl]carbonyl}amino)-4-(2-chlorophenyl)pentanoic acid] | 66 nM
CCC1CCCN(c2nc3ccc(Br)cc3c(C(=O)NCC(CCC(=O)O)c3ccccc3OC(F)(F)F)c2C)C1 (single isomer, unassigned; (-)) [Example 207, (−)-5-[({6-Bromo-2-[3-ethylpiperidin-1-yl]-3-methylquinolin-4-yl}carbonyl)amino]-4-[2-(trifluoromethoxy)phenyl]pentanoic acid] | 22 nM
CCC1CCCN(c2nc3ccc(Br)cc3c(C(=O)NCC(CCC(=O)O)c3cc(F)ccc3F)c2C)C1 (racemic) [Example 225, 5-[({6-Bromo-2-[3-ethylpiperidin-1-yl]-3-methylquinolin-4-yl}carbonyl)amino]-4-(2,5-difluorophenyl)pentanoic acid] | 3.2 nM
CCNc1nc2ccc(Br)cc2c(C(=O)NCC(CCC(=O)O)c2ccccc2Cl)c1C (racemic) [Example 109, (+/−)-5-({[6-Bromo-2-(ethylamino)-3-methylquinolin-4-yl]carbonyl}amino)-4-(2-chlorophenyl)pentanoic acid] | 860 nM
Cc1c(NCC2CC2)nc2ccc(Br)cc2c1C(=O)NCC(CCC(=O)O)c1ccccc1Cl (racemic) [Example 100, (+/−)-5-[({6-Bromo-2-[(cyclopropylmethyl)amino]-3-methylquinolin-4-yl}carbonyl)amino]-4-(2-chlorophenyl)pentanoic acid] | 340 nM
Cc1c(N2CCCC2)nc2ccc(Br)cc2c1C(=O)NCC(CCC(=O)O)c1c(Cl)ccc(Cl)c1Cl (racemic) [Example 174, (+/−)-5-({[6-Bromo-3-methyl-2-(pyrrolidin-1-yl)quinolin-4-yl]carbonyl}amino)-4-(2,3,6-trichlorophenyl)pentanoic acid] | 11 nM
Cc1c(N2CCCC(C)C2)nc2ccc(Br)cc2c1C(=O)NCC(CCC(=O)O)c1ccccc1Cl (single isomer, unassigned; (+)) [Example 48, (+)-5-[({6-Bromo-3-methyl-2-[3-methylpiperidin-1-yl]quinolin-4-yl}carbonyl)amino]-4-(2-chlorophenyl)pentanoic acid] | 1.2 nM
Cc1c(N2CCCCC2)nc2ccc(Br)cc2c1C(=O)NCC(CCC(=O)O)c1c(Cl)ccc(Cl)c1Cl (racemic) [Example 171, (+/−)-5-({[6-Bromo-3-methyl-2-(piperidin-1-yl)quinolin-4-yl]carbonyl}amino)-4-(2,3,6-trichlorophenyl)pentanoic acid] | 9.4 nM
Cc1c(N2CCC(C)CC2)nc2ccc(Br)cc2c1C(=O)NCC(CCC(=O)O)c1cc(F)ccc1Cl (racemic) [Example 18, (+/−)-5-({[6-Bromo-3-methyl-2-(4-methylpiperidin-1-yl)quinolin-4-yl]carbonyl}amino)-4-(2-chloro-5-fluorophenyl)pentanoic acid] | 80 nM
Cc1c(N2CC(F)(F)C(F)(F)C2)nc2ccc(Br)cc2c1C(=O)NCC(CCC(=O)O)c1ccccc1Cl (racemic) [Example 72, (+/−)-5-({[6-Bromo-3-methyl-2-(3,3,4,4-tetrafluoropyrrolidin-1-yl)quinolin-4-yl]carbonyl}amino)-4-(2-chlorophenyl)pentanoic acid] | 80 nM
Cc1c(N2CCCC(C)C2)nc2ccc(Br)cc2c1C(=O)NCC(CCC(=O)O)c1ccccc1Cl (single isomer, unassigned; (-)) [Example 49, (−)-5-[({6-Bromo-3-methyl-2-[3-methylpiperidin-1-yl]quinolin-4-yl}carbonyl)amino]-4-(2-chlorophenyl)pentanoic acid] | 14 nM
Cc1c(N2CCCC(F)(F)C2)nc2ccc(Br)cc2c1C(=O)NCC(CCC(=O)O)c1cc(F)ccc1F (single isomer, unassigned; (-)) [Example 262, (−)-5-({[6-Bromo-2-(3,3-difluoropiperidin-1-yl)-3-methylquinolin-4-yl]carbonyl}amino)-4-(2,5-difluorophenyl)pentanoic acid] | 18 nM
Cc1c(N2CCCC(C)C2)nc2ccc(Br)cc2c1C(=O)NCC(CCC(=O)O)c1cc(F)ccc1Cl (stereo not shown) [Example 17, 5-[({6-Bromo-3-methyl-2-[3-methylpiperidin-1-yl]quinolin-4-yl}carbonyl)amino]-4-(2-chloro-5-fluorophenyl)pentanoic acid] | 4.1 nM
CCC1CCCN(c2nc3ccc(Br)cc3c(C(=O)NCC(CCC(=O)O)c3ccccc3C(F)(F)F)c2C)C1 (single isomer, unassigned) [Example 195, 5-[({6-Bromo-2-[3-ethylpiperidin-1-yl]-3-methylquinolin-4-yl}carbonyl)amino]-4-[2-(trifluoromethyl)phenyl]pentanoic acid] | 77 nM
Cc1c(N2CCCC(F)(F)C2)nc2ccc(Br)cc2c1C(=O)NCC(CCC(=O)O)c1cc(F)ccc1F (single isomer, unassigned; (+)) [Example 263, (+)-5-({[6-Bromo-2-(3,3-difluoropiperidin-1-yl)-3-methylquinolin-4-yl]carbonyl}amino)-4-(2,5-difluorophenyl)pentanoic acid] | 28 nM

Results, then the compound that gave them:

IC50 | SMILES
3 nM | Cc1c(N2CCCCC2)nc2ccc(Br)cc2c1C(=O)NCC(CCC(=O)O)c1ccccc1C(F)(F)F (single isomer, unassigned; (-)) [Example 112, (−)-5-({[6-Bromo-3-methyl-2-(piperidin-1-yl)quinolin-4-yl]carbonyl}amino)-4-[2-(trifluoromethyl)phenyl]pentanoic acid]
15 nM | Cc1c(N2CCCCC2)nc2ccc(Br)cc2c1C(=O)NCC(CCC(=O)O)c1cc(F)ccc1F (single isomer, unassigned; (+)) [Example 257, (+)-5-({[6-Bromo-3-methyl-2-(piperidin-1-yl)quinolin-4-yl]carbonyl}amino)-4-(2,5-difluorophenyl)pentanoic acid]
1.7 nM | Cc1c(N2CCCCC2)nc2ccc(Br)cc2c1C(=O)NCC(CCC(=O)O)c1ccccc1OC(F)(F)F (racemic) [Example 126, (+/−)-5-({[6-Bromo-3-methyl-2-(piperidin-1-yl)quinolin-4-yl]carbonyl}amino)-4-[2-(trifluoromethoxy)phenyl]pentanoic acid]
9.4 nM | Cc1c(N2CCCC2)nc2ccc(Br)cc2c1C(=O)NCC(CCC(=O)O)c1c(F)cccc1F (single isomer, unassigned; (-)) [Example 249, (−)-5-({[6-Bromo-3-methyl-2-(pyrrolidin-1-yl)quinolin-4-yl]carbonyl}amino)-4-(2,6-difluorophenyl)pentanoic acid]
5.6 nM | Cc1c(N2CCCC(F)C2)nc2ccc(Br)cc2c1C(=O)NCC(CCC(=O)O)c1ccccc1C(F)(F)F (single isomer, unassigned) [Example 192, 5-[({6-Bromo-2-[3-fluoropiperidin-1-yl]-3-methylquinolin-4-yl}carbonyl)amino]-4-[2-(trifluoromethyl)phenyl]pentanoic acid]
27 nM | Cc1c(N2CCCCC2)nc2ccc(Br)cc2c1C(=O)NCC(CCC(=O)O)c1c(F)cccc1F (single isomer, unassigned; (+)) [Example 245, (+)-5-({[6-Bromo-3-methyl-2-(piperidin-1-yl)quinolin-4-yl]carbonyl}amino)-4-(2,6-difluorophenyl)pentanoic acid]
3.7 nM | Cc1c(N2CCCC(F)(F)C2)nc2ccc(Br)cc2c1C(=O)NCC(CCC(=O)O)c1c(F)cccc1C(F)(F)F (single isomer, unassigned; (-)) [Example 167, (−)-5-({[6-Bromo-2-(3,3-difluoropiperidin-1-yl)-3-methylquinolin-4-yl]carbonyl}amino)-4-[2-fluoro-6-(trifluoromethyl)phenyl]pentanoic acid]
22 nM | Cc1c(N2CCCCC2)nc2ccc(Br)cc2c1C(=O)NCC(CCC(=O)O)c1c(Cl)ccc(F)c1F (single isomer, unassigned; (+)) [Example 146, (+)-5-({[6-Bromo-3-methyl-2-(piperidin-1-yl)quinolin-4-yl]carbonyl}amino)-4-(6-chloro-2,3-difluorophenyl)pentanoic acid]
2.9 nM | Cc1c(N2CCCC2)nc2ccc(Br)cc2c1C(=O)NCC(CCC(=O)O)c1c(F)cccc1C(F)(F)F (single isomer, unassigned; (-)) [Example 165, (−)-5-({[6-Bromo-3-methyl-2-(pyrrolidin-1-yl)quinolin-4-yl]carbonyl}amino)-4-[2-fluoro-6-(trifluoromethyl)phenyl]pentanoic acid]
1.6 nM | Cc1c(N2CCCC(C)C2)nc2ccc(Br)cc2c1C(=O)NCC(CCC(=O)O)c1ccccc1C(F)(F)F (single isomer, unassigned; (-)) [Example 199, (−)-5-[({6-Bromo-3-methyl-2-[3-methylpiperidin-1-yl]quinolin-4-yl}carbonyl)amino]-4-[2-(trifluoromethyl)phenyl]pentanoic acid]
5.2 nM | Cc1c(N2CCCC(C)C2)nc2ccc(Br)cc2c1C(=O)NCC(CCC(=O)O)c1ccccc1C(F)(F)F (stereo not shown) [Example 125, 5-[({6-Bromo-3-methyl-2-[3-methylpiperidin-1-yl]quinolin-4-yl}carbonyl)amino]-4-[2-(trifluoromethyl)phenyl]pentanoic acid]

Reference: patent US11149018B2, “Substituted N-arylethyl-2-aminoquinoline-4-carboxamides and use thereof” (Bayer Aktiengesellschaft, priority 2017, dated 2021)
